According to patent US20150099800A1, “NOVEL LIPASE INHIBITORS, REPORTER SUBSTRATES AND USES THEREOF” (Northeastern University, priority 2012, published 2015):
Like-named read-outs stand apart in the source and are kept apart here.

Legend:
[1] = Stability of FRET reporter substrates to uncatalyzed hydrolysis; assay type: physicochemical
Text: (§1) A convenient in vitro fluorometric esterase assay utilizing the BioTek Instruments Synergy™ HT Multi-Mode Microplate 96-well reader was developed that measured nanomolar concentrations of fluorescent reaction product.

hDAGLα [2] = target: T1, hDAGLα (Homo sapiens, UniProt Q9Y4D2); test: Evaluation of FRET reporter substrates for enzymatic hydrolysis; assay type: biochemical; design: V5; His; expressed in transfected cells; host or cells: HEK293T, transient; crude cell lysate or membrane preparation
T1 sequence (Q9Y4D2 1-1042): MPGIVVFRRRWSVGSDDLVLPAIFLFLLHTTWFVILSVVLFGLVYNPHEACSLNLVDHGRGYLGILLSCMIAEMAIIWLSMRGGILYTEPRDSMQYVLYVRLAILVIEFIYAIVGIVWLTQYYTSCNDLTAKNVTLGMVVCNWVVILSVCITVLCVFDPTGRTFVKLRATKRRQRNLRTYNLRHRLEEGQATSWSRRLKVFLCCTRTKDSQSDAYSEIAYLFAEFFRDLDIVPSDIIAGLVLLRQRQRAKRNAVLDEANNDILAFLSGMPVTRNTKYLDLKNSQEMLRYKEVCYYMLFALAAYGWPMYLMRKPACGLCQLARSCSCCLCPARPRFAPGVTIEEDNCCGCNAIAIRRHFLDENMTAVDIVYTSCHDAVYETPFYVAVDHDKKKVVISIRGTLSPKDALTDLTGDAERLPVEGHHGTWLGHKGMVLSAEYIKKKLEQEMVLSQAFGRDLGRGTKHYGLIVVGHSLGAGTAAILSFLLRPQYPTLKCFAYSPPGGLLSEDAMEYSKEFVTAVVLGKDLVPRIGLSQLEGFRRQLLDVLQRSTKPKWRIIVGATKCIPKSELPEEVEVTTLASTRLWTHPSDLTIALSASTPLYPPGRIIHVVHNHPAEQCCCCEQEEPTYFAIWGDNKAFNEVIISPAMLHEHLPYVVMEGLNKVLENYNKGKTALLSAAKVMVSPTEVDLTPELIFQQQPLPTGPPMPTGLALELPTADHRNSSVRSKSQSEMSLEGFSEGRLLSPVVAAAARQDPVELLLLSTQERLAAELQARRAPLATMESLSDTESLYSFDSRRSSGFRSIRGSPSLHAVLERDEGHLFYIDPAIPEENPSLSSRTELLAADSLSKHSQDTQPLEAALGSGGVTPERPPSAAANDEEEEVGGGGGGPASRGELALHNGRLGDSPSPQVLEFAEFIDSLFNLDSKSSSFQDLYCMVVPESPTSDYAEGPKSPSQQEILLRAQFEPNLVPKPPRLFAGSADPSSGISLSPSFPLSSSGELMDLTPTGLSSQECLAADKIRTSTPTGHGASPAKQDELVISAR
Text: Reporter compounds as substrates for hDAGLα activity with HEK293T cell lysates in the presence of 10% DMSO are shown. A) Pyrenyl analogs (17)-(19), (21), and (22) (EX 320 nm, EM 400 nm). B) NBD analog (20) (EX 485 nm, EM 535 nm).
as §1

MAGL [3] = target: T2, MAGL (Homo sapiens, UniProt Q99685); conditions: cited from earlier work
T2 sequence (Q99685 1-303): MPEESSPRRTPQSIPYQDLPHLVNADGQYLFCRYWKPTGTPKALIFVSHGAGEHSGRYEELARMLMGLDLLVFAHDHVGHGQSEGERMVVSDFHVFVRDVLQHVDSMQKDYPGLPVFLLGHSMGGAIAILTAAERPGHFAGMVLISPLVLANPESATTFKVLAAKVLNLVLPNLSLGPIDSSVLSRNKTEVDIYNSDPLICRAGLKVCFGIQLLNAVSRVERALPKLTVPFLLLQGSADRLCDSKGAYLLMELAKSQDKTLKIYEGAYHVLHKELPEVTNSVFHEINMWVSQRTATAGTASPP

[4] = tested on: Lipoprotein Lipase (Bacterial); assay type: biochemical, Pseudomonas sp.
[5] = target: T3, Pancreatic Lipase (Porcine) (Sus scrofa, UniProt P00591); assay type: biochemical; conditions: read-out: Pancreatic Lipase (Porcine) inhibition at 10 μM (%)
T3 construct: purchased Sigma L3126
T3 sequence (P00591 1-450): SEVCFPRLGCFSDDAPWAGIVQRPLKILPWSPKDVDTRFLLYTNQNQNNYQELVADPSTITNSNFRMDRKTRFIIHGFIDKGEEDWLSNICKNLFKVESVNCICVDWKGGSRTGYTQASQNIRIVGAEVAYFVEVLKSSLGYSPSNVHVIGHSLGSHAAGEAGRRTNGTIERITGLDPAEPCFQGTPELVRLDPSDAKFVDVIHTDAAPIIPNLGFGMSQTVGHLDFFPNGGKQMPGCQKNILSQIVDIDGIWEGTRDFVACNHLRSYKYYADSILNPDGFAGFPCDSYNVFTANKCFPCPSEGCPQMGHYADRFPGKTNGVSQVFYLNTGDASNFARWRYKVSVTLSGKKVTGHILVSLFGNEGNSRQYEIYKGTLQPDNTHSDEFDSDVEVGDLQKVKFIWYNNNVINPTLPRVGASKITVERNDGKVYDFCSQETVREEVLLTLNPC

cannabinoid receptors = conditions: cited from earlier work
hDAGLα [6] = target: T1, hDAGLα; test: biochemical
MAGL [7] = target: T2, MAGL; test: hMAGL coumarin substrate fluorescence assay; assay type: biochemical; design: The N-terminal his-tagged full length human monoacylglycerol lipase used; His (N); made in house; host or cells: E. coli; conditions: read-out: hMAGL inhibition at 10 μM (%)
mDAGLα = target: T4, mDAGLα (Mus musculus, UniProt Q6WQJ1); test: Radio-TLC assay with [14C]SAG substrate, mDAGLα; conditions: read-out: mDAGLα inhibition at 10000 nM (%)
T4 sequence (Q6WQJ1 1-1044): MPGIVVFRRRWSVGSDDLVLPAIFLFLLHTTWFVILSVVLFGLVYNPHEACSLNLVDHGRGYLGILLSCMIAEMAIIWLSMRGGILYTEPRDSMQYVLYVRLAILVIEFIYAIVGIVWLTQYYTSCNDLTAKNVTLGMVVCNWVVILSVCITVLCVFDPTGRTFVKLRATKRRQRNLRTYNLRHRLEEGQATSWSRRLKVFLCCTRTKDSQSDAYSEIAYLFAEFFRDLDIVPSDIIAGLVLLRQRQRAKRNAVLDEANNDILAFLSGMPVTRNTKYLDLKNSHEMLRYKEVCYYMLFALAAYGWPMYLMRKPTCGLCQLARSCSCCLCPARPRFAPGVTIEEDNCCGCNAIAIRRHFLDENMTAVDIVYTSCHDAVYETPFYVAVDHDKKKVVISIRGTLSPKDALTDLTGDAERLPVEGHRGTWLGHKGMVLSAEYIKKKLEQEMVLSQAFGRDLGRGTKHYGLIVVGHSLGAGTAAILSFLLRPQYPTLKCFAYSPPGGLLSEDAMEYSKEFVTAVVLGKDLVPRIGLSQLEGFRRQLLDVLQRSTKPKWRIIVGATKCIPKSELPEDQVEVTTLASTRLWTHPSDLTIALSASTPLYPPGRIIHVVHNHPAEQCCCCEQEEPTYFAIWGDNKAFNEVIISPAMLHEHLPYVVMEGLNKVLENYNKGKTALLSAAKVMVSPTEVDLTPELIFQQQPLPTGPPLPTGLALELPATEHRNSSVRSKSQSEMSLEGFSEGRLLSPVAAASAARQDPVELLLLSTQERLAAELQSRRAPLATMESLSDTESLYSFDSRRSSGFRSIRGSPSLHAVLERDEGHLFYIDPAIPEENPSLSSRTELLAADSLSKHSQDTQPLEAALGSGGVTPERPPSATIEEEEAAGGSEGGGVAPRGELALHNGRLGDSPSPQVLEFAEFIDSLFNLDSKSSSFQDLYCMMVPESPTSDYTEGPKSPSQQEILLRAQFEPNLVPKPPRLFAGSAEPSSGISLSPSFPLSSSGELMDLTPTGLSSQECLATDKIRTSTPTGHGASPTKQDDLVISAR

Row | SMILES | stability to uncatalyzed hydrolysis at neutral pH [1] | quality as substrate for enzymatic hydrolysis (hDAGLα [2]) | inhibition of MAGL activity reported in the literature (MAGL [3]) | Lipoprotein Lipase (Bacterial) inhibition at 10 μM (%) [4] [%] | inhibition at 10 µM [5] [%] | binding to the cannabinoid receptors, previous reports (cannabinoid receptors) | inhibition at 10 µM (hDAGLα [6]; read-out: hDAGLα inhibition at 10 μM detergent free (%), FRET) [%] | inhibition at 10 µM (hDAGLα [6]; read-out: hDAGLα inhibition at 10 μM detergent free (%), FRET, marker °) [%] | inhibition at 10 µM (MAGL [7]) [%] | inhibition at 10 µM (mDAGLα) [%]
1 | COC[C@@H](COC(=O)CCCc1ccc2ccc3cccc4ccc1c2c34)OC(=O)CCCCCNc1ccc([N+](=O)[O-])cc1[N+](=O)[O-] [Compound 18, 1-Pyrenebutanoyl-2-((2,4-dinitrophenyl)amino)hexanoyl-3-methyl-sn-glycerol] | stable | best enzyme substrates |  |  |  |  |  |  |  | 
2 | COC[C@@H](COC(=O)CCCCCNc1ccc([N+](=O)[O-])cc1[N+](=O)[O-])OC(=O)CCCc1ccc2ccc3cccc4ccc1c2c34 [Compound 17, 1-((2,4-Dinitrophenyl)amino)hexanoyl-2-pyrenebutanoyl-3-methyl-sn-glycerol] | stable | best enzyme substrates |  |  |  |  |  |  |  | 
3 | NC(=O)c1cccc(-c2cccc(OC(=O)NC3CCCCC3)c2)c1 [URB597] |  |  | poor inhibitors | 21 | 68 | did not bind | 22 | 7 | 18 | < 0
